test: Odor threshold concentration (Log T / Log ODT) by gas chromatograph sniff port with panelists; set-up: species or system human; conditions: common logarithm of odor threshold concentration of the ingredient
Method: “High impact perfume raw materials” should be understood as perfume raw materials having a Log T<−4. The odor threshold concentration of a chemical compound is determined in part by its shape, polarity, partial charges and molecular mass. For convenience, the threshold concentration is presented as the common logarithm of the threshold concentration, i.e., Log [Threshold] (“Log T”).
The odor threshold concentration of a perfuming compound is determined by using a gas chromatograph (“GC”). Specifically, the gas chromatograph is calibrated to determine the exact volume of the perfume oil ingredient injected by the syringe, the precise split ratio, and the hydrocarbon response using a hydrocarbon standard of known concentration and chain-length distribution. The air flow rate is accurately measured and, assuming the duration of a human inhalation to last 12 seconds, the sampled volume is calculated. […] To determine the threshold concentration, solutions are delivered to the sniff port at the back-calculated concentration. A panelist sniffs the GC effluent and identifies the retention time when odor is noticed. The average across all panelists determines the odor threshold concentration of the perfuming compound. The determination of odor threshold is described in more detail in C.

Compound	Log ODT
10-UNDECENAL (A) + (9E)-9-UNDECENAL (B) + (9Z)-9-UNDECENAL (C)	<−4
CC1=CC2CC(C=O)C1CC2C(C)C (stereo not drawn) [8-ISOPROPYL-6-METHYL-BICYCLO[2.2.2]OCT-5-ENE-2-CARBALDEHYDE]	<−4
COc1ccc2ccccc2c1 [2-METHOXYNAPHTHALENE]	<−4
CC1(C)CCC[C@]2(C)[C@H]3CCO[C@]3(C)CC[C@@H]12 [(−)-(3AR,5AS,9AS,9BR)-3A,6,6,9A-TETRAMETHYLDODECAHYDRONAPHTHO[2,1-B]FURAN]	<−4
CCCCCCOC(C)=O [HEXYL ACETATE]	>−4
CC(=O)OCCc1ccccc1 [2-PHENYLETHYL ACETATE]	>−4
CC/C=C\CCOC(C)=O [(Z)-3-HEXENYL ACETATE]	>−4
CC(=O)O[C@@H]1CC2CC[C@]1(C)C2(C)C [(1R,2R)-1,7,7-TRIMETHYL-BICYCLO[2.2.1]HEPT-2-YL ACETATE]	>−4
(+−)-4-METHYLENE-2-PHENYLTETRAHYDRO-2H-PYRAN (A) + (+−)-4-METHYL-6-PHENYL-3,6-DIHYDRO-2H-PYRAN (B) + (+−)-4-METHYL-2-PHENYL-3,6-DIHYDRO-2H-PYRAN (C)	<−4
(+−)-(3E)-3-METHYL-4-(2,6,6-TRIMETHYL-2-CYCLOHEXEN-1-YL)-3-BUTEN-2-ONE (A) + (+−)-(1E)-1-(2,6,6-TRIMETHYL-2-CYCLOHEXEN-1-YL)-1-PENTEN-3-ONE (B)	<−4
CCCCC[C@H]1C(=O)CC[C@@H]1CC(=O)OC (racemic) [METHYL 2-((1RS,2RS)-3-OXO-2-PENTYLCYCLOPENTYL)ACETATE]	>−4
C=CCCC(=O)C1=CCCC(C)(C)C1	<−4
CC(C)CCCC(C)CCO (racemic)	>−4
COc1ccc(C)cc1 [1-METHOXY-4-METHYLBENZENE]	>−4
(2Z)-2-TRIDECENENITRILE (A) + (3Z)-3-TRIDECENENITRILE (B) + (3E)-3-TRIDECENENITRILE (C) + (2E)-2-TRIDECENENITRILE (D)	<−4
CCCCCCCCCC(C)=O [Microcapsules 2-UNDECANONE, 2-UNDECANONE]	>−4
2-METHYLBUTYL SALICYLATE (A) + PENTYL SALICYLATE (B)	>−4
C=CC(C)(CCC=C(C)C)OC(C)=O (racemic) [(+−)-1,5-DIMETHYL-1-VINYL-4-HEXENYL ACETATE]	>−4
.ALPHA.-DIHYDROTERPINEOL (A) + .BETA.-DIHYDROTERPINEOL (B)	>−4
CC/C=C(\C)C(O)CCCCC (racemic) [(+−)-(E)-4-METHYL-3-DECEN-5-OL]	>−4
3,7-DIMETHYL-2,6-NONADIENENITRILE (A) + 3,7-DIMETHYL-3,6-NONADIENENITRILE (B)	>−4
CC(=O)OCCC(C)CCC=C(C)C (stereo not drawn) [3,7-DIMETHYL-6-OCTENYL ACETATE]	>−4
CCCCCCCC=O [OCTANAL]	>−4
TRICYCLO[5.2.1.0~2,6~]DEC-3-EN-8-YL ACETATE (A) + TRICYCLO[5.2.1.0~2,6~]DEC-4-EN-8-YL ACETATE (B)	>−4
CC(C)c1cccc(C(C)CC=O)c1 (racemic) [(+−)-3-(3-ISOPROPYL-1-PHENYL)BUTANAL]	<−4
C=CC(C)CCCC(C)(C)O (racemic)	>−4

Compound	Log ODT
CC(C)=CCCC(C)CC=O (racemic)	>−4
CCOC(=O)C(C)CC (racemic) [(+−)-ETHYL 2-METHYLBUTANOATE]	>−4
CCCCCCCCCC(C)C=O (racemic) [(+−)-2-METHYLUNDECANAL]	<-4
CC1=CCC(C(C)(C)S)CC1 (racemic) [(+−)-2-(4-METHYL-3-CYCLOHEXEN-1-YL)-2-PROPANETHIOL]	<−4
CC/C=C\CCOC(=O)C(C)C [(Z)-3-HEXENYL ISOBUTYRATE]	>−4
(2Z)-1,1-DIETHOXY-3,7-DIMETHYL-2,6-OCTADIENE (A) + (2E)-1,1-DIETHOXY-3,7-DIMETHYL-2,6-OCTADIENE (B)	>−4
CCCCCCCCCC=O [DECANAL]	>−4
c1ccc(Oc2ccccc2)cc1 [1,1′-OXYDIBENZENE]	>−4
(+)-(3S)-3-[(1R)-4-METHYL-3-CYCLOHEXEN-1-YL]BUTANAL (A) + (+)-(3R)-3-[(1R)-4-METHYL-3-CYCLOHEXEN-1-YL]BUTANAL	>−4
O=C1CCCCCCCCCCCCCCO1 [OXACYCLOHEXADECAN-2-ONE]	>−4
CCCCCCCC1CCC(=O)O1 (racemic) [(+−)-5-HEPTYLDIHYDRO-2(3H)-FURANONE]	<−4
CC1=CCC2C[C@@H]1C2(C)C (single isomer, unassigned; (-))	>−4
1-OXA-12-CYCLOHEXADECEN-2-ONE (A) + 1-OXA-13-CYCLOHEXADECEN-2-ONE (B)	>−4
C/C=C/C(=O)[C@@H]1[C@@H](C)C=CCC1(C)C (racemic)	<−4
COc1nccnc1CCCC(C)C	<−4
CCCCCCOC(=O)c1ccccc1O [HEXYL 2-HYDROXYBENZOATE]	>-4
3,5,6-TRIMETHYL-3-CYCLOHEXENE-1-CARBALDEHYDE (A) + 2,4,6-TRIMETHYL-3-CYCLOHEXENE-1 -CARBALDEHYDE (B)	>−4
CC1(C)CC=C(CCC=O)CC1	>−4
COCCc1ccccc1 [(2-METHOXYETHYL)BENZENE]	>−4
(1RS,2RS)-2,4-DIMETHYL-3-CYCLOHEXENE-1-CARBALDEHYDE (A) + (1RS,2SR)-2,4-DIMETHYL-3-CYCLOHEXENE-1-CARBALDEHYDE (B)	>−4
3-(4-ETHYLPHENYL)-2,2-DIMETHYLPROPANAL (A) + 3-(2-ETHYLPHENYL)-2,2-DIMETHYLPROPANAL (B)	>−4
CC(=O)/C=C/C1=C(C)CCCC1(C)C	<−4
CC(C)=CCCC(C)C=O (racemic)	>−4
(2RS,4SR)-4-METHYL-2-(2-METHYL-1-PROPEN-1-YL)TETRAHYDRO-2H-PYRAN (A) + (2RS,4RS)-4-METHYL-2-(2-METHYL-1-PROPEN-1-YL)TETRAHYDRO-2H-PYRAN (B)	>−4
CC12CCC(CC1)C(C)(C)O2	>−4

Source: patent US12480075B2, “Perfume delivery system” (FIRMENICH SA, priority 2019, dated 2025)
